This is an account of results in patent EP0283151A2, “Prostaglandins useful for lowering intraocular pressure” (ALLERGAN, INC, priority 1987, dated 1988).

Assay [1] can be described thus: Duration of IOP-lowering action in cats after topical application. Type of assay: in vivo. The following applies: topical 0.1%, 25μL. The arrangement: unit not given here. The protocol:
(§1) The ocular hypotensive activity of these compounds was measured by applanation pneumatonometry.
The duration of action of the triester (9,11,15-triacetyl ester) in comparison with that of the native PGF2α was tested in cats.

A short description of assay [2]: IOP effects in conscious rabbits, applanation pneumatonometry. Type of assay: in vivo, New Zealand-Dutch Belt cross rabbits. Also on record: IOP (Test): unit not given here. The following applies: for IOP (Test): treated eye; for concentration having the same effect in lowering intraocular pressure: solution applied to the eye. The protocol: as §1
The effect of 0.1 percent PGF2α on IOP versus 0.01% solution of the 9,11,15 triacetyl ester of PGF2α was measured in New Zealand-Dutch Belt cross rabbits. Intraocular pressure was measured by applanation pneumatonometry in conscious animals. Nine animals were used for each experiment. The data from this study as summarized in Table I show about a 10-fold difference in the activity of 9,11,15-triacetyl PGF2α compound over PGF2α.

Marks after values point to notes of the source that are not given here.

For `CCCCC[C@@H](/C=C/[C@H]1C(OC(C)=O)C[C@H](OC(C)=O)[C@@H]1C/C=C\CCCC(=O)O)OC(C)=O` (stereo partly drawn) [Triester, (5Z,9α,13E,15S)-9,11,15-triacetoxyprosta-5,13-dienoic acid], the “Test IOP” value in assay [1] (0.0 hours) is recorded as 20.6; in assay [1] (0.5 hours) it was 18.6; in assay [1] (1.0 hours), 17.9*; in assay [1] (2.0 hours), 17.0*; in assay [1] (3.0 hours) it was 18.0*; in assay [1] (4.0 hours), 17.8*. The “Test IOP” value in assay [1] (6.0 hours) is given as 18.8*; in assay [1] (24.0 hours), 20.0*; in assay [1] (-0.5 hours) it was 21.2. The “IOP (Test)” value in assay [2] (rabbits, 0.01% solution, 0 hours) is 24.39; in assay [2] (rabbits, 0.01% solution, 0.5 hours), 24.67; in assay [2] (rabbits, 0.01% solution, 1.0 hours) it was 23.56; in assay [2] (rabbits, 0.01% solution, 1.5 hours) it was 22.72*; in assay [2] (rabbits, 0.01% solution, 2.0 hours), 21.33*; in assay [2] (rabbits, 0.01% solution, 2.5 hours), 20.83*. Besides, the “IOP (Test)” value is 22.22* in assay [2] (rabbits, 0.01% solution, 3.5 hours) and 23.28 in assay [2] (rabbits, 0.01% solution, 4.5 hours). Also, the “increase in potency in terms of lowering IOP compared to PGF2α” value in assay [2] (rabbits, 0.01% triacetyl ester versus 0.1% PGF2α) is approximately 10 fold. The “concentration having the same effect in lowering intraocular pressure” value in assay [2] was determined as 0.01%.

Regarding `CCCCC[C@H](O)/C=C/[C@@H]1[C@@H](C/C=C\CCCC(=O)O)[C@@H](O)C[C@H]1O` [PGF2α, reference compound], the “Test IOP” value in assay [1] (0.0 hours) is 19.8; in assay [1] (0.5 hours) it was 18.2; in assay [1] (1.0 hours), 15.4*; in assay [1] (2.0 hours), 14.5*; in assay [1] (3.0 hours), 15.3*; in assay [1] (4.0 hours) it was 16.7*. Further, the “Test IOP” value is 21.5 in assay [1] (6.0 hours), 19.8 in assay [1] (24.0 hours) and 19.7 in assay [1] (-0.5 hours). Also, the “IOP (Test)” value in assay [2] (rabbits, 0.1% solution, 0 hours) is on record as 21.67; in assay [2] (rabbits, 0.1% solution, 0.5 hours) it was 23.00; in assay [2] (rabbits, 0.1% solution, 1.0 hours) it was 24.00; in assay [2] (rabbits, 0.1% solution, 1.5 hours) it was 24.35; in assay [2] (rabbits, 0.1% solution, 2.0 hours) it was 22.67; in assay [2] (rabbits, 0.1% solution, 2.5 hours), 20.92. Also, the “IOP (Test)” value in assay [2] (rabbits, 0.1% solution, 3.5 hours) is listed as 19.50*; in assay [2] (rabbits, 0.1% solution, 4.5 hours), 20.75. In addition, the “concentration having the same effect in lowering intraocular pressure” value in assay [2] was 0.1%.
